Assay results from patent publication US6737383B1, “Herbicidal oxadiazolidines” (priority 1999, dated 2004).

Key:
[1] = tested on: blackgrass; test: Test B pre/postemergence blackgrass; type: in vivo, Alopecurus myosuroides
Outline: (§1)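 Response is a visual 0-to-10 score relative to untreated plants, where 0 means no effect and 10 means complete control, taken twelve to sixteen days after application. Treatments went onto soil at planting and onto foliage of 1- to 4-leaf plants, using a surfactant-containing non-phytotoxic solvent.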

[2] = tested on: surinam grass; test: Test B pre/postemergence surinam grass; type: in vivo, Brachiaria decumbens
Outline: as §1

[3] = tested on: sugar beet; test: Test B pre/postemergence sugar beet; type: in vivo, Beta vulgaris
Outline: as §1

[4] = tested on: bamyardgrass; test: Test B flood test barnyardgrass; type: in vivo, Echinochloa crus-galli
Outline: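 Read-out is a visual response score from 0 (no effect) to 10 (complete control), assigned by comparison with untreated controls. Treatment was applied at the 2-leaf stage, and plants stayed in the greenhouse for twelve to sixteen days before scoring.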

[5] = tested on: winter wheat; test: Test E winter wheat; type: in vivo, Triticum aestivum; settings: Postemergence; for Wheat (winter) plant response rating: Rate 250 g/ha
Outline: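 Visual evaluation versus untreated controls after about 21 to 28 days in the greenhouse. Compound was in a surfactant-containing non-phytotoxic solvent; postemergence plants were treated at the 1- to 4-leaf stage, grown in a 60:40 sandy loam and potting mix blend.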

[6] = tested on: blackgrass; test: Test E blackgrass; type: in vivo, Alopecurus myosuroides; settings: Preemergence; for Blackgrass plant response rating (0 to 100 scale): Rate 250 g/ha
[7] = tested on: green foxtail; test: Test E green foxtail; type: in vivo, Setaria viridis; settings: Preemergence; for Green foxtail plant response rating (0 to 100 scale): Rate 250 g/ha
[8] = tested on: Italian ryegrass; test: Test E Italian ryegrass; type: in vivo, Lolium multiflorum; settings: Preemergence; for I. Ryegrass plant response rating (0 to 100 scale): Rate 250 g/ha
[9] = tested on: winter wheat; test: Test E winter wheat; type: in vivo, Triticum aestivum; settings: Preemergence; for Wheat (winter) plant response rating (0 to 100 scale): Rate 250 g/ha
[10] = tested on: wild oat; test: Test E wild oat; type: in vivo, Avena fatua; settings: Preemergence; for Wild oat plant response rating (0 to 100 scale): Rate 250 g/ha
[11] = tested on: winter barley; test: Test E winter barley; type: in vivo, Hordeum vulgare; settings: Preemergence; for Barley (winter) plant response rating (0 to 100 scale): Rate 250 g/ha
[12] = Preemergence, Rate 62 g/ha, scale of 0 to 10 where 0 is no effect and 10 is complete control
[13] = Preemergence, Rate 250 g/ha, scale of 0 to 10 where 0 is no effect and 10 is complete control
[14] = Preemergence, Rate 500 g/ha, scale of 0 to 10 where 0 is no effect and 10 is complete control
[15] = Rate 62 g/ha, Postemergence, scale 0 to 10 (0 no effect, 10 complete control)
[16] = Rate 125 g/ha, Postemergence, scale of 0 to 10 where 0 is no effect and 10 is complete control
[17] = Rate 125 g/ha, Preemergence, scale of 0 to 10 where 0 is no effect and 10 is complete control
[18] = Rate 250 g/ha, Postemergence, scale of 0 to 10 where 0 is no effect and 10 is complete control
[19] = Rate 500 g/ha, Postemergence, scale 0 to 10, 0 no effect, 10 complete control
[20] = Rate 62 g/ha, headed Pre-emergence (flood test species), scale 0 to 10 (0 no effect, 10 complete control)
[21] = Rate 125 g/ha, Pre-emergence, flood test species, scale 0 to 10 where 0 is no effect and 10 is complete control
[22] = Rate 250 g/ha, Pre-emergence, flood-test species, scale 0 to 10, 0 is no effect, 10 is complete control
[23] = Rate 500 g/ha, Pre-emergence, flood test species, scale 0 to 10 (0 no effect, 10 complete control)
[24] = Rate 1000 g/ha, 0 to 100 scale where 0 is no effect and 100 is complete control
[25] = 0 to 100 scale where 0 is no effect and 100 is complete control
[26] = Rate 500 g/ha, 0 to 100 scale, 0 is no effect, 100 is complete control
[27] = Rate 1000 g/ha, 0 to 100 scale, 0 no effect, 100 complete control
[28] = Rate 500 g/ha, 0 to 100 scale (0 no effect, 100 complete control)
[29] = Postemergence, Rate 31 g/ha, visual rating, scale 0 to 10 (0 no effect, 10 complete control)
[30] = Preemergence, Rate 31 g/ha, visual rating, scale 0 to 10 (0 no effect, 10 complete control)
[31] = Rate 16 g/ha, Postemergence, scale 0 to 10, 0 no effect, 10 complete control
[32] = Rate 16 g/ha, Preemergence, scale 0 to 10, 0 no effect, 10 complete control

CC1Cc2cccc(-n3c(=O)on(C(=O)N(c4ccc(F)cc4)C(C)C)c3=O)c2O1 (stereo not drawn) [Compound 281]
Blackgrass plant response rating [1, 12]: 0 | Blackgrass plant response rating [1, 13]: 2 | Plant response rating, Blackgrass [1, 14]: 4 | Blackgrass plant response rating [1, 15]: 0 | Blackgrass plant response rating [1, 16]: 0 | Blackgrass plant response rating [1, 17]: 1 | Plant response rating, Blackgrass [1, 18]: 0 | Blackgrass plant response rating [1, 19]: 2 | B. signalgrass plant response rating [2, 12]: 0 | B. signalgrass plant response rating [2, 13]: 0 | Plant response rating, B. signalgrass [2, 14]: 0 | B. signalgrass plant response rating [2, 15]: 0 | B. signalgrass plant response rating [2, 16]: 0 | B. signalgrass plant response rating [2, 17]: 0 | Plant response rating, B. signalgrass [2, 18]: 0 | B. signalgrass plant response rating [2, 19]: 0 | Sugarbeets plant response rating [3, 12]: 0 | Sugarbeets plant response rating [3, 13]: 0 | Plant response rating, Sugarbeets [3, 14]: 0 | Sugarbeets plant response rating [3, 15]: 0 | Sugarbeets plant response rating [3, 16]: 0 | Sugarbeets plant response rating [3, 17]: 0 | Plant response rating, Sugarbeets [3, 18]: 0 | Sugarbeets plant response rating [3, 19]: 4 | Barnyardgrass plant response rating [4, 20]: 0 | Barnyardgrass plant response rating [4, 21]: 0 | Barnyardgrass plant response rating [4, 22]: 4 | Barnyardgrass plant response rating [4, 23]: 2 | Plant response rating, Wheat (winter) [5, 24]: 80 | Wheat (winter) plant response rating [5, 25]: 55 | Plant response rating, Wheat (winter) [5, 26]: 70 | Blackgrass plant response rating (0 to 100 scale) [6]: 50 | Plant response rating, Blackgrass [6, 27]: 50 | Green foxtail plant response rating (0 to 100 scale) [7]: 100 | Plant response rating, Green foxtail [7, 28]: 100 | Plant response rating, Green foxtail [7, 27]: 100 | I. Ryegrass plant response rating (0 to 100 scale) [8]: 60 | Plant response rating, I. Ryegrass [8, 28]: 60 | Plant response rating, I. Ryegrass [8, 27]: 60 | Wheat (winter) plant response rating (0 to 100 scale) [9]: 60 | Plant response rating, Wheat (winter) [9, 28]: 65 | Plant response rating, Wheat (winter) [9, 27]: 80 | Wild oat plant response rating (0 to 100 scale) [10]: 70 | Plant response rating, Wild oat [10, 28]: 65 | Plant response rating, Wild oat [10, 27]: 80 | Barley (winter) plant response rating (0 to 100 scale) [11]: 70 | Plant response rating, Barley (winter) [11, 28]: 70 | Plant response rating, Barley (winter) [11, 27]: 80

C=CCCCn1c(=O)on(C(=O)N(c2ccc(F)cc2)C(C)C)c1=O [Compound 291]
Blackgrass plant response rating [1, 29]: 0 | Blackgrass plant response rating [1, 30]: 0 | Blackgrass plant response rating [1, 12]: 0 | Blackgrass plant response rating [1, 31]: 0 | Blackgrass plant response rating [1, 32]: 0 | Blackgrass plant response rating [1, 15]: 1 | Blackgrass plant response rating [1, 16]: 2 | Blackgrass plant response rating [1, 17]: 8 | B. signalgrass plant response rating [2, 29]: 0 | B. signalgrass plant response rating [2, 30]: 0 | B. signalgrass plant response rating [2, 12]: 0 | B. signalgrass plant response rating [2, 31]: 0 | B. signalgrass plant response rating [2, 32]: 0 | B. signalgrass plant response rating [2, 15]: 0 | B. signalgrass plant response rating [2, 16]: 0 | B. signalgrass plant response rating [2, 17]: 3 | Sugarbeets plant response rating [3, 29]: 0 | Sugarbeets plant response rating [3, 30]: 0 | Sugarbeets plant response rating [3, 12]: 0 | Sugarbeets plant response rating [3, 31]: 0 | Sugarbeets plant response rating [3, 32]: 0 | Sugarbeets plant response rating [3, 15]: 0 | Sugarbeets plant response rating [3, 16]: 0 | Sugarbeets plant response rating [3, 17]: 0 | Barnyardgrass plant response rating ([4]; Rate 16 g/ha, head printed Pre-emergence (flood test species), scale 0 to 10, 0 no effect, 10 complete control): 0 | Barnyardgrass plant response rating ([4]; Rate 31 g/ha, Pre-emergence section (flood test species), scale 0 to 10): 2 | Barnyardgrass plant response rating [4, 20]: 2 | Barnyardgrass plant response rating [4, 21]: 4 | Barnyardgrass plant response rating [4, 22]: 4 | Barnyardgrass plant response rating [4, 23]: 6 | Plant response rating, Wheat (winter) [5, 24]: 55 | Wheat (winter) plant response rating [5, 25]: 30 | Plant response rating, Wheat (winter) [5, 26]: 40 | Blackgrass plant response rating (0 to 100 scale) [6]: 30 | Plant response rating, Blackgrass [6, 28]: 40 | Plant response rating, Blackgrass [6, 27]: 50 | Green foxtail plant response rating (0 to 100 scale) [7]: 55 | Plant response rating, Green foxtail [7, 28]: 85 | Plant response rating, Green foxtail [7, 27]: 100 | I. Ryegrass plant response rating (0 to 100 scale) [8]: 70 | Plant response rating, I. Ryegrass [8, 28]: 100 | Plant response rating, I. Ryegrass [8, 27]: 90 | Wheat (winter) plant response rating (0 to 100 scale) [9]: 35 | Plant response rating, Wheat (winter) [9, 28]: 50 | Plant response rating, Wheat (winter) [9, 27]: 60 | Wild oat plant response rating (0 to 100 scale) [10]: 20 | Plant response rating, Wild oat [10, 28]: 50 | Plant response rating, Wild oat [10, 27]: 60 | Barley (winter) plant response rating (0 to 100 scale) [11]: 10 | Plant response rating, Barley (winter) [11, 28]: 30 | Plant response rating, Barley (winter) [11, 27]: 20
